Calls of active or inactive are those of the source.
Columns and labels:
[1] = target: Long-chain-fatty-acid--AMP ligase FadD28 (Mycobacterium tuberculosis, UniProt P9WQ59); assay: Fluorescence polarization aasay to screen for inhibitors that compete for the binding of FadD28 to a bisubstrate Measured in Biochemical System Using Plate Reader - 2147-01_Inhibitor_Dose_CherryPick_Activity.; assay type: functional, Mycobacterium tuberculosis H37Rv
[2] = target: T1, Aminopeptidase N (Plasmodium falciparum FcB1/Columbia, UniProt O96935); assay: P. falciparum M1AAP inhibitors, biochemical, fluorogenic H-Leu-NHMec substrate, 1536-well (AID 1445); set-up: species or system Plasmodium falciparum 3D7, 3D7
T1 sequence (O96935 whole entry): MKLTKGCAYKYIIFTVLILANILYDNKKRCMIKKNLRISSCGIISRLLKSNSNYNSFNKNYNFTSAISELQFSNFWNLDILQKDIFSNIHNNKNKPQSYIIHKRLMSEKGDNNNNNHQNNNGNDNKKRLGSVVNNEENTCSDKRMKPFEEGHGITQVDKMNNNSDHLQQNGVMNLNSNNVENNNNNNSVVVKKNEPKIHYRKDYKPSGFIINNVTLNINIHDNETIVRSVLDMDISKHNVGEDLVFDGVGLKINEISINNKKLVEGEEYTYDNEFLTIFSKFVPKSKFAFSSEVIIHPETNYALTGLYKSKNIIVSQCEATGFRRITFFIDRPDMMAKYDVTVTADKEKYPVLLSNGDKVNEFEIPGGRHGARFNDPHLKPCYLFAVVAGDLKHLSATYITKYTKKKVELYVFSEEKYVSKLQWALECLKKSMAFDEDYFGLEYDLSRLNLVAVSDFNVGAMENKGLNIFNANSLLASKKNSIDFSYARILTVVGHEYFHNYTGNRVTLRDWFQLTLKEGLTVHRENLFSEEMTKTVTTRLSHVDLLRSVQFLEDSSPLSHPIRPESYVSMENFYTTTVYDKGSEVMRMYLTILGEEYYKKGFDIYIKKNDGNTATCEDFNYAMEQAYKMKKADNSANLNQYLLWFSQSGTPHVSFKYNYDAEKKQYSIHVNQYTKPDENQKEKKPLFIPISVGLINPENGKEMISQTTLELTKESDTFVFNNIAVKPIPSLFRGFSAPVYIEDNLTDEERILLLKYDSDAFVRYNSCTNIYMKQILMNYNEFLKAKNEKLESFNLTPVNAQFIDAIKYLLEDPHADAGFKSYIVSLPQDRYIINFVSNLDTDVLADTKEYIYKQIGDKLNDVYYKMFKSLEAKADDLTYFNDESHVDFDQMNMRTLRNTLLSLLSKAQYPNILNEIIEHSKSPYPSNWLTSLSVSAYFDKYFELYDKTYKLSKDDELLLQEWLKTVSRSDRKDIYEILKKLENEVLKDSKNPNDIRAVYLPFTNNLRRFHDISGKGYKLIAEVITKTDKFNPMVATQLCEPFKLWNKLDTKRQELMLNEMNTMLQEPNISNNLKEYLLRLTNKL

[3] = target: Mu-type opioid receptor (Homo sapiens, UniProt P35372); assay type: functional, cell-based;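 also: U2OS cells with beta-arrestin recruitment to OPRM1 by beta-gal complementation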
[4] = target: 5-hydroxytryptamine receptor 2A (Mus musculus, UniProt P35363); assay type: functional, cell-based;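 also: CHO-K1 cells with tagged receptor and beta-arrestin; agonist potency measured as compound-induced activation of the receptor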
[5] = target: Nuclear receptor subfamily 0 group B member 1 (Homo sapiens, UniProt P51843); assay type: functional, cell-based;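 also: HEK293T cells transfected with SF-1 and DAX-1 plus StAR promoter luciferase reporter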
[6] = cells; assay type: functional, cell-based
[7] = MITF Orthogonal Assay: SK-MEL-5 CTG Assay Measured in Cell-Based System Using Plate Reader - 2084-02_Inhibitor_Dose_DryPowder_Activity_Set7.; assay type: functional
[8] = TRPM1 promoter luciferase reporter signal decrease, dose response, MITF inhibitor project, cell-based, SK-MEL-5, dry powder, set 8 (AID 624430); assay type: functional
[9] = MITF: Counter assay: A375 proliferation Measured in Cell-Based System Using Plate Reader - 2084-03_Inhibitor_Dose_DryPowder_Activity_Set8.; assay type: functional; settings: A-375
[10] = tested on: Vero; assay: Vero cell toxicity, dose response, cytotoxicity control, plate reader, cherry-pick samples (AID 687020); assay type: functional, cell-based; settings: Chlorocebus sabaeus
[11] = target: T2, Corticotropin-releasing factor receptor 2/Corticotropin-releasing factor-binding protein (Homo sapiens, UniProt P24387+Q13324); assay: activators of CRF receptor 2 with binding protein – uHTS hits, confirmation (AID 602473); assay type: functional; settings: read-out: EC50_Mean
T2 sequence (Q13324 whole entry): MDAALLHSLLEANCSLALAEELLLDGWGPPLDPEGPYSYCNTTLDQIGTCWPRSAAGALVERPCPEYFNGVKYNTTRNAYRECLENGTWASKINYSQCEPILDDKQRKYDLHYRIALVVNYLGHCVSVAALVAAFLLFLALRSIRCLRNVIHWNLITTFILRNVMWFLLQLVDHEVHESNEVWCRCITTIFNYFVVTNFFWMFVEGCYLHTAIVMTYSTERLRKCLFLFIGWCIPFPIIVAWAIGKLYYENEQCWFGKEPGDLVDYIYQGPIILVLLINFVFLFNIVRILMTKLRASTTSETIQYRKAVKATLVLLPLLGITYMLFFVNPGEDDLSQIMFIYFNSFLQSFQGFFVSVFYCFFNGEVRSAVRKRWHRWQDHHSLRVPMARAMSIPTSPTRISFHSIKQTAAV
T2 sequence (P24387 whole entry): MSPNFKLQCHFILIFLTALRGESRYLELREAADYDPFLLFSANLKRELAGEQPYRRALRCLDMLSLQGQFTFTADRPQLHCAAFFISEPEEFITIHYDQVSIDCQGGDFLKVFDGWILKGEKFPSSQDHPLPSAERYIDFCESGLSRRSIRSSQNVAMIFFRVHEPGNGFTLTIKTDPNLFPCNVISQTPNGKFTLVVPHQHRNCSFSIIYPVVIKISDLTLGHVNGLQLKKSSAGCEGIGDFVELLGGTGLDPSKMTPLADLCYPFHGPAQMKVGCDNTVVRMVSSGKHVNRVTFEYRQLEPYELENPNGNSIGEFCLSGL

[12] = HEK293T cell cytotoxicity, dose response, cytotoxicity control for HIV Vif inhibitor project, cherry-picks (AID 652208); assay type: functional, cell-based
[13] = A549 cell cytotoxicity, dose response, cytotoxicity control, CellTiter-Glo luminescence, dry powder, set 3 (AID 743146); assay type: functional, cell-based
[14] = T. cruzi growth inhibition in host cells, dose response, cell-based, plate reader, dry powder, set 2 (AID 652275); assay type: functional
[15] = target: T3, Beta-2 adrenergic receptor (Homo sapiens, UniProt P07550); assay: Dose response for HTS for Beta-2AR agonists via FAP method from Powderset3.; assay type: functional
[16] = target: T3, Beta-2 adrenergic receptor; assay: beta2AR agonists driving receptor internalization, dose response, cell-based, FAP fluorogen, flow cytometry, cherry pick 1 (AID 588763); assay type: functional
[17] = target: Fructose-bisphosphate aldolase (Mycobacterium tuberculosis, UniProt P9WQA3); assay: Fluorescence-based biochemical high throughput dose response assay for inhibitors of the fructose-bisphosphate aldolase (FBA) of M. tuberculosis.; assay type: functional
[18] = cells
[19] = target: Major prion protein (Homo sapiens, UniProt P04156); assay type: functional, cell-based
[20] = EDANS-DABCYL fluorescence interference, concentration series, dose response, artefact control for kallikrein-7 zymogen activator project, biochemical, fluorescence intensity, triplicate (AID 720493)
[21] = target: Kallikrein-7 (Homo sapiens, UniProt P49862); assay: Fluorescence Intensity-based biochemical primary high throughput dose response assay to identify activators of kallikrein-7 (K7) zymogen.
[22] = target: Protein Wnt-3a (Mus musculus, UniProt P27467); assay: SAR analysis of small molecule antagonists of Gli-SUFU in a Wnt3a luminescent reporter assay.; assay type: functional
[23] = HEK293 cell cytotoxicity, dose response, cytotoxicity control, cherry-picks, set 5 (AID 1053117); assay type: functional, cell-based
[24] = target: Endoplasmic reticulum aminopeptidase 1 (Homo sapiens, UniProt Q9NZ08); assay: ERAP1 aminopeptidase inhibitors, dose response, biochemical, cherry-pick, set 2, plate reader (AID 743314)
[25] = target: Arf-GAP with SH3 domain, ANK repeat and PH domain-containing protein 1 (Homo sapiens, UniProt Q9ULH1); assay type: functional;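 also: biochemical fluorescence polarization dose–response screen measuring inhibition of ASAP1; ASAP1 GAP domain stimulating GTP hydrolysis by truncated human ARF1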
[26] = target: ADP-ribosylation factor GTPase-activating protein 1 (Rattus norvegicus, UniProt Q62848); assay: Fluorescence polarization-based biochemical high throughput dose response screening assay to identify inhibitors of ADP-ribosylation factor GTPase activating protein 1 (ARFGAP1).; assay type: functional
[27] = target: Botulinum neurotoxin type F (Clostridium botulinum, UniProt P30996); assay: High-throughput multiplex microsphere dose response for inhibitors of toxin protease, specifically Botulinum neurotoxin light chain F protease, compounds from Cherry Pick 02.; assay type: functional; settings: read-out: EC50_MICROM
[28] = target: T4, Protein skinhead-1 (Caenorhabditis elegans, UniProt P34707); assay type: functional
T4 sequence (P34707 whole entry): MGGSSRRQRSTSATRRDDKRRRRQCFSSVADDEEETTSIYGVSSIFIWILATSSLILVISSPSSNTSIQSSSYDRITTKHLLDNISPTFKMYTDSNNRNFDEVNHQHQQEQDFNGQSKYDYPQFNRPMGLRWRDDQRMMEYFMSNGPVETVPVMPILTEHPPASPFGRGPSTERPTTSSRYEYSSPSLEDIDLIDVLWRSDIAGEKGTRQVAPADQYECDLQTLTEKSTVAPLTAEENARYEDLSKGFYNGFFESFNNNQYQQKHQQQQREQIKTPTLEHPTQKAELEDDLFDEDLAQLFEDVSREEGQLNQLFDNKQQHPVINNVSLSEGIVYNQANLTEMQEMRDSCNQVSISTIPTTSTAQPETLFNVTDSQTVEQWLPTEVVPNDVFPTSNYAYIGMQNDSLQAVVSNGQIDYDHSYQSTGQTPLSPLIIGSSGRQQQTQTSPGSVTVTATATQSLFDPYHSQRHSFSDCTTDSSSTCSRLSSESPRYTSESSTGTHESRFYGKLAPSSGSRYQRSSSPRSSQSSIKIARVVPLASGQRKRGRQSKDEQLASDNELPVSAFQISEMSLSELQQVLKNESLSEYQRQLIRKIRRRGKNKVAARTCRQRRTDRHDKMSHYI

[29] = target: fMet-Leu-Phe receptor (Homo sapiens, UniProt P21462); assay: FPR ligands, dose response (AID 519); assay type: functional
[30] = target: FAD-linked sulfhydryl oxidase ALR (Homo sapiens, UniProt P55789); assay: inhibitors of human ALR sulfhydryl oxidase, dose response, biochemical, H2O2 detection, luminescence, cherry-pick (AID 493248)

CCOc1ccc(-n2c(=S)sc3c(O)nc(SCC(=O)N4CCC(C)CC4)nc32)cc1
AC50 [1]: 99 µM (active)
IC50 [2]: 30 µM (active)

CCCCCc1cc(=O)oc2c(C(CCN3CCN(c4ccccc4)CC3)c3ccc4c(c3)OCO4)c(OC)cc(OC)c12 (stereo not given)
EC50 [3]: 92.5 µM (inactive)
EC50 [4]: 76.1 µM (inactive)

CCc1ccc(NC(=O)N2CCc3ccccc3C2)cc1
IC50 [5]: > 67.6 µM (inactive)
IC50 [6]: > 67.6 µM (inactive)

CC(C)N1CCN(C2=C(Nc3cccc(Cl)c3)C(=O)c3ccccc3C2=O)CC1
AC50 [7]: 7.16 µM (active)
AC50 [8]: 2.47 µM (active)
AC50 [9]: 30.1 µM (active)

CC(=O)Nc1cccc(OCCCNC(=O)c2ccc(C(C)(C)C)cc2)c1
AC50 [10]: 35.3 µM (active)

O=C(NCc1ccccc1C(F)(F)F)c1cccc2c1C(=O)c1ccc(N3CCCCC3)cc1S2(=O)=O
EC50 [11]: 5.37 µM (active)
AC50 [12]: > 52 µM (inactive)

O=C(CCNC(=O)c1ccc(Cl)cc1)N[C@H]1CCCc2ccccc21
AC50 [13]: > 52 µM (inactive)

CC(C)(C)[S@@+]([O-])N1Cc2cc(C(=O)NCc3ccc4c(c3)OCO4)nc(-c3cccc(-c4cccnc4)c3)c2[C@H]1CCO
AC50 [14]: 1.67 µM (active)

O=C(c1cc2c(=O)n3ccccc3nc2s1)N1CCN(Cc2ccc3c(c2)OCO3)CC1
EC50 [15]: 0.00977 µM (active)
EC50 [16]: 0.0693 µM (active)
IC50 [17]: > 1.11 µM (active)

CCOC(=O)C(C)Sc1nc(-c2ccccc2)nc2ccccc12 (stereo not given)
IC50 [18]: > 138 µM (inactive)
IC50 [19]: 1.83 µM (active)

COc1cc2c(cc1OC)C(=O)CC(C)S2 (stereo not given)
EC50 [20]: > 7.73 µM (active)
EC50 [21]: 8.28 µM (active)

O=C(Nc1cc(N2CCCCC2)ncn1)c1ccccc1C(F)(F)F
IC50 [22]: 6.48 µM (active)

O=S(=O)(c1cccc(F)c1)N1CC[C@@H]2[C@H]1c1cc(-c3cccc(F)c3)ccc1N[C@@H]2CO
AC50 [23]: 33.9 µM (active)

CCN1CCN(Cc2c(O)ccc3c(C)cc(=O)oc23)CC1
AC50 [24]: 10 µM (active)

COc1ccccc1C=NNC(=O)NN=Cc1ccccc1OC
IC50 [25]: 23.2 µM (inactive)
IC50 [26]: 25.6 µM (inactive)

CCC(=O)NCCn1c(C)cc2ccccc21
EC50 [27]: > 20 µM (inactive)
IC50 [28]: > 100 µM (inactive)

Cc1nnc(SCc2cnc(-c3ccccc3)o2)nc1O
Ki [29]: > 66.7 µM (inactive)
AC50 [30]: 0.547 µM (active)

Reference: ChEMBL document CHEMBL1201862, “PubChem BioAssay data set” (2004)
